We go through 12 molecules from patent publication US7517888B2, “A1 adenosine receptor antagonists” (CV Therapeutics, Inc., priority 2004, dated 2009).

Where two headings read alike, the source gives them in different places.

In test [1] the target is T1, Hamster-A1 (DDT1 MF-2) (Mesocricetus auratus, UniProt A0A1U8BVR4).
T1 sequence (A0A1U8BVR4 1-326): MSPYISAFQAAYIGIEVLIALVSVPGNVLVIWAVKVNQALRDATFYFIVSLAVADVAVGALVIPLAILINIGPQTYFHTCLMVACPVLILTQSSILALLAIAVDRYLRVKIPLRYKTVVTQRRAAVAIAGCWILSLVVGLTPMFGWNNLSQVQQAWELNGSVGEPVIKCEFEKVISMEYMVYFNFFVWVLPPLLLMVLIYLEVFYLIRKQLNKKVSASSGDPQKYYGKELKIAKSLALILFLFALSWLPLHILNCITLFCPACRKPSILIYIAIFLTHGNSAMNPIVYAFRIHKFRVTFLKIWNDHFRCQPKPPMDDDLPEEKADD
Nature of the test: Radioligand binding, hamster A1 AdoR, DDT1 MF-2 membranes. Here is the method: (§1) The cDNAs for human A1, A2A, A2B or A3 AdoRs were prepared by RT-PCR from total RNA of human cells or tissues and sequenced on both strands. The expression vector containing each of these cDNAs and a second vector containing a neomycin or puromycin-resistance gene were introduced to HEK-293 or CHO cells by Lipofectin-Plus (Life Technology). Colonies were selected by growing transfected cells in the presence of neomycin or puromycin. Stably transfected cells were maintained in Dulbecco's modified Eagle's medium (DMEM) or F-12 medium with 10% fetal bovine serum, 100 μg/ml penicillin, 100 μg/ml streptomycin and appropriate concentrations of neomycin or puromycin. These stably transfected cells were referred to as HEK-“AdoR” or CHO-“AdoR” depending on the receptors that they express. The cell lines used routinely were CHO-A1, HEK-A2A, HEK-A2B.and CHO-A3 cells. In addition, hamster DDT1 MF-2 cells that express endogenous A1 AdoRs were also used to determine the binding activities of compounds for A1 AdoRs.
(§2) Monolayers of transfected cells or DDT1 MF-2 were washed with phosphate buffered saline (PBS) and harvested in a buffer containing 10 mM HEPES (pH 7.4), 10 mM EDTA and protease inhibitors. The cells were homogenized in polytron for 1 minute at setting 4 and centrifuged at 29000 g for 15 minutes at 4° C. The cell pellets were washed with a buffer containing 10 mM HEPES (pH7.4), 1 mM EDTA and protease inhibitors, and were resuspended in the same buffer supplemented with 10% sucrose. Frozen aliquots were kept at −80° C.
(§3) The affinities of compounds for A1, A2A, A2B or A3 AdoRs were determined in competition studies using radioligands such as ^3H—CPX (A1 antagonist), or ^3H—CCPA (A1 agonist), ^3H-ZM241385 (A2A antagonist) or ^3H-CGS21680 (A2A agonist), ^3H-ZM241385 (A2B antagonist) or ^125I-AB-MECA (A3 agonist) and membranes of corresponding cells. […] The assays were incubated for 60-90 minutes, stopped by filtration onto GF/B filter plates using Packard Harvester and washed four times with ice-cold TM buffer (10 mM Tris, 1 mM MgCl2, pH 7.4). The amounts of radioligands that bound to the GF/B filter plates were determined by scintillation counting. Nonspecific binding were determined in the presence of 1-10 μM of cold ligands. Bmax and KD values were calculated using GraphPad software.

Test [2] concerns the target T2, Human-A1 (CHO-A1) (Homo sapiens, UniProt P30542).
T2 construct: expressed in transfected cells; host or cells: CHO cells, stably transfected (CHO-A1)
T2 sequence (P30542 1-326): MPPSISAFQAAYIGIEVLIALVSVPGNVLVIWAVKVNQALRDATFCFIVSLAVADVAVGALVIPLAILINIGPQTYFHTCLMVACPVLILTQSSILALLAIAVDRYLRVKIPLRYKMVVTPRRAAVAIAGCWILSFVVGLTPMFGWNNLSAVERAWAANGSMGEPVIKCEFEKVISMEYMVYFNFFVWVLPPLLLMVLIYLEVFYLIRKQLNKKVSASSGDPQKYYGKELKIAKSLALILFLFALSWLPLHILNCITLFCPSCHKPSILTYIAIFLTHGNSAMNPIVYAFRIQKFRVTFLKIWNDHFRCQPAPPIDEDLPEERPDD
The test can be described thus: Radioligand binding, human A1 AdoR, CHO-A1 membranes. Here is the method: as §1, §2, §3

Test [3] deals with T3, Human-A2A (HEK-A2A) (Homo sapiens, UniProt P29274).
T3 construct: expressed in transfected cells; host or cells: HEK-293 cells, stably transfected (HEK-A2A)
T3 sequence (P29274 whole entry): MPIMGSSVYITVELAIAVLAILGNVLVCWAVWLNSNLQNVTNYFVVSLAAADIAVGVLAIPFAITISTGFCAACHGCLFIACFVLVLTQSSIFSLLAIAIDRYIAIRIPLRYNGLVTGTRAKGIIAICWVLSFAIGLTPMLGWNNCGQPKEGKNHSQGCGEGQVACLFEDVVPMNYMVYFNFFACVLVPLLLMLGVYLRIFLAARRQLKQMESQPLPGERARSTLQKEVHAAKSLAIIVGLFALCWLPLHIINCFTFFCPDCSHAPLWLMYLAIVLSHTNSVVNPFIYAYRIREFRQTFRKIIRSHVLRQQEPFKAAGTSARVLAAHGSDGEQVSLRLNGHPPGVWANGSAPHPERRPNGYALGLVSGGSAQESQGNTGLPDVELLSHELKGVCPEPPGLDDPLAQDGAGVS
Nature of the test: Radioligand binding, human A2A AdoR, HEK-A2A membranes. Here is the method: as §1, §2, §3

Test [4] deals with T4, Human-A2B (HEK-A2B) (Homo sapiens, UniProt P29275).
T4 construct: expressed in transfected cells; host or cells: HEK-293 cells, stably transfected (HEK-A2B)
T4 sequence (P29275 1-332): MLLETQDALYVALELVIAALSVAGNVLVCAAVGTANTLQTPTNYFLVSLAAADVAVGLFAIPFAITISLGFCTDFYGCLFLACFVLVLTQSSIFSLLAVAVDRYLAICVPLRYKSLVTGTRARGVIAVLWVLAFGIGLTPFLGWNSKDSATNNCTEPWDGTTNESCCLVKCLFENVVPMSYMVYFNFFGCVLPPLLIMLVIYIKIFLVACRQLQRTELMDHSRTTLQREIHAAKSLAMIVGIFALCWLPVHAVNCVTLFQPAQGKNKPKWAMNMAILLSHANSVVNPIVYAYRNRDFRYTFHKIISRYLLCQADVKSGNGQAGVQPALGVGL
The test can be described thus: Radioligand binding, human A2B AdoR, HEK-A2B membranes. The method, then:
as §1, §2
[…] The amounts of radioligands that bound to the GF/B filter plates were determined by scintillation counting. Nonspecific binding were determined in the presence of 1-10 μM of cold ligands. Bmax and KD values were calculated using GraphPad software.

Setting [5] is: 3H-CPX radioligand, DDT1 MF-2 membranes, read-out: Ki (low) Hamster-A1 DDT1 MF-2.
[6] abbreviates: 3H-CPX radioligand, CHO-A1 membranes, read-out: Ki (low) Human-A1 CHO-A1.
Where [7] appears, read: 3H-ZM241385 radioligand, HEK-A2A membranes, read-out: Ki (low) Human-A2A HEK-A2A.
The mark [8] stands for this setting: 3H-CGS21680 radioligand (footnote c), HEK-A2B membranes, read-out: Ki (low) Human-A2B HEK-A2B.

For `COc1ccc(-c2nc3c(NC4CCCC4)ncnc3n2C)cc1` [cyclopentyl[8-(4-methoxyphenyl)-9-methylpurin-6-yl]amine], the Ki in test [1] (setting [5]) is 22 nM; in test [2] (setting [6]), 32 nM; in test [3] (setting [7]) it was over 5000 nM; in test [4] (setting [8]), over 6670 nM.
For `Cn1c(-c2ccc(O)cc2)nc2c(NC3CCCC3)ncnc21` [4-[6-(cyclopentylamino)-9-methylpurin-8-yl]phenol], the Ki in test [1] is 4 nM; in test [2] it was 9 nM; in test [3], over 5000 nM; in test [4], over 6670 nM.
In the case of `Cn1c(-c2cccc(Cl)c2)nc2c(NC3CCCC3)ncnc21` [[8-(3-chlorophenyl)-9-methylpurin-6-yl]cyclopentylamine], the inhibition constant Ki is 3 nM in test [1] (setting [5]), 5 nM in test [2] (setting [6]), over 5000 nM in test [3] (setting [7]) and over 6670 nM in test [4] (setting [8]).
In the same order, the values of `CCCn1c(-c2ccccc2)nc2c(NC3CCCCC3)ncnc21` [cyclohexyl(8-phenyl-9-propylpurin-6-yl)amine] are 11 nM, 25 nM, over 5000 nM and over 6670 nM.
In the same order, the values of `Cc1cccc(-c2nc3c(NC4CCCC4)ncnc3n2C)c1` [cyclopentyl[9-methyl-8-(3-methylphenyl)purin-6-yl]amine] are 2 nM, 5 nM, over 5000 nM and over 6670 nM.
Regarding `Cn1c(-c2ccc(Cl)cc2)nc2c(NC3CCCC3)ncnc21` [[8-(4-chlorophenyl)-9-methylpurin-6-yl]cyclopentylamine], the Ki is 10 nM in test [1] (setting [5]), 9 nM in test [2] (setting [6]), over 5000 nM in test [3] (setting [7]) and over 6670 nM in test [4] (setting [8]).
Taken in the same sequence, the figures for `Cn1c(-c2ccc(F)cc2)nc2c(NC3CCCC3)ncnc21` [cyclopentyl[8-(4-fluorophenyl)-9-methylpurin-6-yl]amine] were 1 nM, 5 nM, over 5000 nM and over 6670 nM.
Taken in the same sequence, the figures for `Cc1ccc(-c2nc3c(NC4CCCC4)ncnc3n2C)cc1` [cyclopentyl[9-methyl-8-(4-methylphenyl)purin-6-yl]amine] were 3 nM, 5 nM, over 5000 nM and over 6670 nM.
Regarding `Cc1ccccc1-c1nc2c(NC3CCCC3)ncnc2n1C` [cyclopentyl[9-methyl-8-(2-methylphenyl)purin-6-yl]amine], the inhibition constant Ki is 20 nM in test [1] (setting [5]), 42 nM in test [2] (setting [6]), over 5000 nM in test [3] (setting [7]) and over 6670 nM in test [4] (setting [8]).
For the molecule `Cn1c(-c2cccnc2)nc2c(NC3CCCC3)ncnc21` [cyclopentyl(9-methyl-8-(3-pyridyl)purin-6-yl)amine], the inhibitory constant (Ki) in test [1] (setting [5]) was 84 nM; in test [2] (setting [6]), 184 nM; in test [3] (setting [7]), over 5000 nM; in test [4] (setting [8]), over 6670 nM.
In the same order, the values of `CCn1c(-c2ccccc2)nc2c(NC3CCCCC3)ncnc21` [cyclohexyl(9-ethyl-8-phenylpurin-6-yl)amine] are 4 nM, 11 nM, over 5000 nM and over 6670 nM.
As for `Cn1c(-c2ccccc2)nc2c(NC3CCCCC3)ncnc21` [cyclohexyl(9-methyl-8-phenylpurin-6-yl)amine], the inhibition constant Ki in test [1] (setting [5]) is 1 nM; in test [2] (setting [6]), 2 nM; in test [3] (setting [7]), over 5000 nM; in test [4] (setting [8]), over 6670 nM.
